Measurements published in US9133187B2, “Serine/threonine kinase inhibitors” (ARRAY BIOPHARMA INC., priority 2011, dated 2015).
Where a name gives a salt, the structure may show the parent alone.

Assays:
[1] = tested on: PMA-stimulated P90RSK(Ser380) phosphorylation in HepG2 cells; assay: Cellular P90RSK(Ser380) Phosphorylation Assay; assay type: cell-based; details: Homo sapiens, 1.5 h compound incubation, PMA stimulation, pP90RSK(Ser380) normalized to GAPDH, read-out: Cell Assay IC50
Method: Inhibition of PMA-stimulated P90RSK(Ser380) phosphorylation was determined by the following in vitro cellular mechanistic assay, which comprises incubating cells with a compound for 1.5 hours and quantifying fluorescent pP90RSK(Ser380) signal on fixed cells and normalizing to GAPDH signal.
Materials and Methods: HepG2 cells were obtained from ATCC and grown in DMEM supplemented with 10% fetal bovine serum. Cells were plated in 96-well plates at 35,000 cells/well and allowed to attach overnight at 37° C./5% CO2. Diluted compounds were then added at a final concentration of 0.5% DMSO. After 1.5 hour compound incubation, cells were stimulated with the addition of PMA (phorbol 12-myristate 13-acetate) at a final concentration of 100 ng/mL; the PMA stimulation was a 30-minute incubation at 37° C./5% CO2. After the 30-minute PMA stimulation, cells were washed with PBS and fixed in 3.7% formaldehyde in PBS at room temperature for 15-20 minutes. This was followed by another wash in PBS and then permeabilization in 100% MeOH at room temperature for 10-15 minutes. Following the permeabilization incubation, cells were washed in PBS/0.05% Tween-20, followed by a block in Odyssey blocking buffer (LI-COR Biosciences) for at least 1 hour. Antibodies to phosphorylated P90RSK(Ser380) (Cell Signaling #9335, rabbit monoclonal) and GAPDH (Fitzgerald 10R-G109a, mouse monoclonal) were added to the cells and incubated overnight at 4° C. pP90RSK(Ser380) antibody was used at a 1:250 dilution; GAPDH was used at a 1:10,000 dilution. After washing with PBS/0.05% Tween-20, the cells were incubated with fluorescently-labeled secondary antibodies (Anti-rabbit-Alexa Flour680, Invitrogen Cat#A21109; Anti-mouse-IRDye800CW, Rockland Inc. Cat#610-131-121) for 1 hour. Both secondary antibodies were used at a 1:1000 dilution. Cells were then washed and analyzed for fluorescence at both wavelengths using the Odyssey Infrared Imaging System (LI-COR Biosciences). Phosphorylated P90RSK(Ser380) signal was normalized to GAPDH signal. Representative date is in TABLE III (infra).

[2] = target: human ERK-2 (Mitogen Activated Kinase 1) (Homo sapiens (Human), UniProt P28482); assay: ERK-2 Enzymatic Assay; assay type: biochemical; details: 5 nM ERK-2, 25 μM ATP, Omnia peptide S/T17; read-out: ERK Inhibition IC50
Method: Compounds were tested in an enzymatic assay using human ERK-2 (Mitogen Activated Kinase 1), recombinantly expressed as an n-terminal 6-His fusion protein in E. coli and corresponding to aa 8-360. The substrate used was the fluorescent Omnia peptide S/T17 (Invitrogen of Carlsbad, Calif.; Cat. KNZ1171C). Test compounds were diluted in DMSO in 3-fold serial dilutions at 100× final concentrations. […] The assay was run at ambient temperature in a white 384-well polypropylene plate (Nunc, Inc of Naperville, Ill.; Cat. 267462) collecting data every 50 seconds for approximately 30 minutes on an Envision plate reader (PerkinElmer, Inc. of Waltham, Mass.); Excitation 340 nm/Emission 495 nm. The data collected from each well was fit to a straight line and the resulting rates were used to calculate percent of control. Percent of control was plotted against compound concentration and IC50 values were determined using a four-parameter fit.

human ERK-2 (Mitogen Activated Kinase 1), sequence (P28482 8-360): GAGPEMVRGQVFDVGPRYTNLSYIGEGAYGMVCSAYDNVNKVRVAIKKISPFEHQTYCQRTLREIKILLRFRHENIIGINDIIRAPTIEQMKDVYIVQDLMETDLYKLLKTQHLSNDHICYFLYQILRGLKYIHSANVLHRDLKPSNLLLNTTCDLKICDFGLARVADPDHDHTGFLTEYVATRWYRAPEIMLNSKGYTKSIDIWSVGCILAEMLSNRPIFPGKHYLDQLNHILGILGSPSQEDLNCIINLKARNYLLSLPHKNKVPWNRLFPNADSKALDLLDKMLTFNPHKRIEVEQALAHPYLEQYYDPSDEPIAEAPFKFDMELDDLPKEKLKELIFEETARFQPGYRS

Row | Structure (SMILES) | IC50 [1] | IC50 [2]
1 | COCC(=O)OC[C@@H](NC(=O)N1CCc2cnc(NC3CCOCC3)nc2C1)c1ccc(F)c(Cl)c1 [Compound I-56, (S)-2-(3-chloro-4-fluorophenyl)-2-(2-(tetrahydro-2H-pyran-4-ylamino)-5,6,7,8-tetrahydropyrido[3,4-d]pyrimidine-7-carboxamido)ethyl 2-methoxyacetate] | 0.0662 µM | 0.0053 µM
2 | N#CC[C@@H](NC(=O)N1CCc2cnc(NC3CCOCC3)nc2C1)c1ccc(F)c(Cl)c1 [Compound I-59, (R)—N-(1-(3-chloro-4-fluorophenyl)-2-cyanoethyl)-2-(tetrahydro-2H-pyran-4-ylamino)-5,6-dihydropyrido[3,4-d]pyrimidine-7(8H)-carboxamide] | 0.0855 µM | 0.0006 µM
3 | CC(CF)Nc1ncc2c(n1)CN(C(=O)N[C@H](CO)c1ccc(Cl)c(Cl)c1)CC2 (stereo partly drawn) [Compound I-60, N—((S)-1-(3,4-dichlorophenyl)-2-hydroxyethyl)-2-(1-fluoropropan-2-ylamino)-5,6-dihydropyrido[3,4-d]pyrimidine-7(8H)-carboxamide] | 0.1 µM | 0.0033 µM
4 | CC(C)Nc1ncc2c(n1)CN(C(=O)N[C@@H](c1ccc(Cl)c(Cl)c1)[C@H]1CCCN1C)CC2 [Compound I-61, N—((S)-(3,4-dichlorophenyl)((R)-1-methylpyrrolidin-2-yl)methyl)-2-(isopropylamino)-5,6-dihydropyrido[3,4-d]pyrimidine-7(8H)-carboxamide] | 0.093 µM | 0.0029 µM
5 | CC(C)Nc1ncc2c(n1)CN(C(=O)N[C@@H](c1ccc(Cl)c(Cl)c1)[C@H](O)CO)CC2 [Compound I-62, N-((1S,2S)-1-(3,4-dichlorophenyl)-2,3-dihydroxypropyl)-2-(isopropylamino)-5,6-dihydropyrido[3,4-d]pyrimidine-7(8H)-carboxamide] | 0.109 µM | 0.0024 µM
6 | CNC[C@@H](NC(=O)N1CCc2cnc(NC(C)C)nc2C1)c1ccc(C(F)(F)F)c(F)c1 [Compound I-66, (S)—N-(1-(3-fluoro-4-(trifluoromethyl)phenyl)-2-(methylamino)ethyl)-2-(isopropylamino)-5,6-dihydropyrido[3,4-d]pyrimidine-7(8H)-carboxamide hydrochloride] | 0.132 µM | 0.0041 µM
7 | CNC[C@@H](NC(=O)N1CCc2cnc(Nc3ccc(F)cc3)nc2C1)c1ccc(C(F)(F)F)c(F)c1 [Compound I-68, (S)—N-(1-(3-fluoro-4-(trifluoromethyl)phenyl)-2-(methylamino)ethyl)-2-(4-fluorophenylamino)-5,6-dihydropyrido[3,4-d]pyrimidine-7(8H)-carboxamide hydrochloride] | 0.146 µM | 0.0023 µM
8 | COC[C@@H](NC(=O)N1CCc2cnc(NCCO)nc2C1)c1ccc(Cl)c(Cl)c1 [Compound I-73] | 0.241 µM | 0.0098 µM
9 | C[C@@H](NC(=O)N1CCc2cnc(NC(CO)CO)nc2C1)c1ccc(Cl)c(Cl)c1 [Compound I-75, (R)—N-(1-(3,4-dichlorophenyl)ethyl)-2-(1,3-dihydroxypropan-2-ylamino)-5,6-dihydropyrido[3,4-d]pyrimidine-7(8H)-carboxamide] | 0.314 µM | 0.0056 µM
10 | C[C@@H](NC(=O)N1CCc2cnc(NC3CCN(C)CC3)nc2C1)c1ccc(Cl)c(Cl)c1 [Compound I-83, (R)—N-(1-(3,4-dichlorophenyl)ethyl)-2-(1-methylpiperidin-4-ylamino)-5,6-dihydropyrido[3,4-d]pyrimidine-7(8H)-carboxamide] | 2.5 µM | 0.113 µM
11 | CC1(C)CC[C@@H]([C@@H](NC(=O)N2CCc3cnc(NC4CCOCC4)nc3C2)c2ccc(C(F)(F)F)cc2F)N1 [Compound I-86, N—((S)—((S)-5,5-dimethylpyrrolidin-2-yl)(2-fluoro-4-(trifluoromethyl)phenyl)methyl)-2-(tetrahydro-2H-pyran-4-ylamino)-5,6-dihydropyrido[3,4-d]pyrimidine-7(8H)-carboxamide] | 3.6 µM | 0.148 µM
12 | CC(=O)N1CCC[C@H]1[C@@H](NC(=O)N1CCc2cnc(NC(C)C)nc2C1)c1ccc(Cl)c(F)c1 [Compound I-87, N—((S)—((S)-1-acetylpyrrolidin-2-yl)(4-chloro-3-fluorophenyl)methyl)-2-(isopropylamino)-5,6-dihydropyrido[3,4-d]pyrimidine-7(8H)-carboxamide] | 5.1 µM | 0.195 µM
13 | C[C@@H](CO)Nc1ncc2c(n1)CN(C(=O)NCc1ccc(Cl)c(Cl)c1)CC2 [Compound I-90, (S)—N-(3,4-dichlorobenzyl)-2-(1-hydroxypropan-2-ylamino)-5,6-dihydropyrido[3,4-d]pyrimidine-7(8H)-carboxamide] | 0.103 µM | 0.0021 µM
14 | CC(C)Nc1ncc2c(n1)CN(C(=O)NC1(c3ccc(Cl)c(Cl)c3)CCNCC1)CC2 [Compound I-93, N-(4-(3,4-dichlorophenyl)piperidin-4-yl)-2-(isopropylamino)-5,6-dihydropyrido[3,4-d]pyrimidine-7(8H)-carboxamide] | 6.2 µM | 0.0038 µM
15 | CS(=O)(=O)CC[C@@H](NC(=O)N1CCc2cnc(NC3CCOCC3)nc2C1)c1ccc(Cl)c(Cl)c1 [Compound I-105, (R)—N-(1-(3,4-dichlorophenyl)-3-(methylsulfonyl)propyl)-2-(tetrahydro-2H-pyran-4-ylamino)-5,6-dihydropyrido[3,4-d]pyrimidine-7(8H)-carboxamide] | 0.101 µM | 0.0026 µM
16 | CC(NC(=O)N1CCc2cnc(NC3CCOCC3)nc2C1)c1ccc2cc[nH]c2c1 (centres unmarked) [Compound I-107, N-(1-(1H-indol-6-yl)ethyl)-2-(tetrahydro-2H-pyran-4-ylamino)-5,6-dihydropyrido[3,4-d]pyrimidine-7(8H)-carboxamide] | 0.03 µM | 0.0027 µM
17 | C[C@@H](CO)Nc1ncc2c(n1)CN(C(=O)NCc1cnc(C(F)(F)F)nc1)CC2 [Compound I-109, 2-((S)-2-Hydroxy-1-methyl-ethylamino)-5,8-dihydro-6H-pyrido[3,4-d]pyrimidine-7-carboxylic acid (2-trifluoromethyl-pyrimidin-5-ylmethyl)-amide] | 3.3 µM | 0.0927 µM
18 | CC(C)Nc1ncc2c(n1)CN(C(=O)N[C@H](CCN)c1ccc(C(F)(F)F)cc1)CC2 [Compound I-119, (R)—N-(3-amino-1-(4-(trifluoromethyl)phenyl)propyl)-2-(isopropylamino)-5,6-dihydropyrido[3,4-d]pyrimidine-7(8H)-carboxamide] | 0.694 µM | 0.0018 µM
19 | O=C(N1CCc2cnc(NC3CCOCC3)nc2C1)N1CCC[C@H]1c1ccccc1 [Compound I-130, (S)-(2-phenylpyrrolidin-1-yl)(2-(tetrahydro-2H-pyran-4-ylamino)-5,6-dihydropyrido[3,4-d]pyrimidin-7(8H)-yl)methanone] | 10 µM | 0.123 µM
20 | O=C(N1CCc2cnc(NC3CCOCC3)nc2C1)N1CCCC1c1ccc(F)cc1 (centres unmarked) [Compound I-134, (2-(4-fluorophenyl)pyrrolidin-1-yl)(2-(tetrahydro-2H-pyran-4-ylamino)-5,6-dihydropyrido[3,4-d]pyrimidin-7(8H)-yl)methanone] | 1.2 µM | 0.0204 µM
21 | CC(C)Nc1ncc2c(n1)CN(C(=O)N[C@H](CN)c1ccc(F)c(Cl)c1)CC2 [II-7, 2-Isopropylamino-5,8-dihydro-6H-pyrido[3,4-d]pyrimidine-7-carboxylic acid [(S)-2-amino-1-(3-chloro-4-fluoro-phenyl)-ethyl]-amide] | 50 µM | 0.0019 µM
22 | Cc1cccc(CCNc2ncc3c(n2)CN(C(=O)N[C@H](CO)c2ccc(F)c(Cl)c2)CC3)n1 [II-10, 2-[2-(6-Methyl-pyridin-2-yl)-ethylamino]-5,8-dihydro-6H-pyrido[3,4-d]pyrimidine-7-carboxylic acid [(S)-1-(3-chloro-4-fluoro-phenyl)-2-hydroxy-ethyl]-amide] | 20.8 µM | 0.061 µM
